Our source for the Herbicidal activity values is patent US12336536B2, “Method for controlling herbicide resistant or tolerant weeds” (BASF Agro B.V., priority 2015, dated 2025).

Holding throughout (assay): Greenhouse test, solo and combination, post-emergence, 20 DAT
One test deals with BRSNW. In kind it is in vivo, Brassica napus. On the procedure:
(§1) The test plants have been seeded, separately for each species, in plastic containers in sandy loamy soil containing 5% of organic matter.
(§2) For the post-emergence treatment, the plants were first grown to the 2 leaf station (GS 12) and applied at GS 12-19 depending on the species. The herbicidal compositions were suspended or emulsified in water as distribution medium and sprayed using finely distributing nozzles.
(§3) The plants have been cultivated due to their individual requirements at 10-25° C. and 20-35° C. The plants were irrigated due to their necessity.
(§4) The racemic mixture (±)-2-exo-(2-Methylbenzyloxy)-1-methyl-4-isopropyl-7-oxabicyclo[2.2.1]heptane was used as herbicide A and formulated as emulsifiable concentrate having an active ingredient concentration of 750 g/l.
(§5) Cyhalofop-butyl (herbicide B.5) was used as an emulsifiable concentrate (EC) formulation having an active ingredient concentration of 200 g/l.
(§6) Metsulfuron-methyl (herbicide B.53) was used as a water soluble granule (SG) formulation having an active ingredient concentration of 20%.
(§7) Bispyribac-sodium (herbicide B.23) was used as a soluble concentrate (SL) formulation having an active ingredient concentration of 408 g/l.
(§8) Quizalofop-P-ethyl (herbicide B.217) was used as a suspension concentrate (SC) formulation having an active ingredient concentration of 106 g/l.
(§9) In the following experiments, the herbicidal activity for the individual herbicide compounds (solo and mixture applications) was assessed 20 days after treatment (DAT).
(§10) The evaluation for the damage on undesired weeds caused by the chemical compositions was carried out using a scale from 0 to 100%, compared to the untreated control plants. Here, 0 means no damage and 100 means complete destruction of the plants.
(§11) The plants used in the greenhouse experiments belonged to the following species:
(§12) E=X+Y−(X·Y/100) • where X=effect in percent using herbicide A at an application rate a; • Y=effect in percent using herbicide B at application rate b; • E=expected effect (in %) of herbicide A+herbicide B at application rates a+b.
(§13) The value E corresponds to the effect (plant damage or injury) which is to be expected if the activity of the individual compounds is additive. If the observed effect is higher than the value E calculated according to the Colby equation, a synergistic effect is present.
(§14) Tables 3 to 6 below relate the herbicidal activity, in greenhouse trials, of the individual actives and the combination applied at different rates and ratios, in post-emergence application at 20 days after treatment (DAT).

The next test deals with ALOMY. It counts as in vivo, Alopecurus myosuroides. On the procedure: as §1, §2, §3, §4, §5, §6, §7, §8, §9, §10, §11, §12, §13, §14
The test system of a further test is LOLRI. It counts as in vivo, Lolium rigidum. The method, then: as §1, §2, §3, §4, §5, §6, §7, §8, §9, §10, §11, §12, §13, §14
A further test deals with MATIN. It counts as in vivo, Matricaria inodora. On the procedure: as §1, §2, §3, §4, §5, §6, §7, §8, §9, §10, §11, §12, §13, §14
Another test has as its system GALAP. In kind it is in vivo, Galium aparine. On the procedure: as §1, §2, §3, §4, §5, §6, §7, §8, §9, §10, §11, §12, §13, §14
The test system of the next test is PAPRH. In kind it is in vivo, Papaver rhoeas. On the procedure: as §1, §2, §3, §4, §5, §6, §7, §8, §9, §10, §11, §12, §13, §14
Another test relates to BROST. In kind it is in vivo, Bromus sterilis. The method, then: as §1, §2, §3, §4, §5, §6, §7, §8, §9, §10, §11, §12, §13, §14

For `COc1cc(OC)nc(Oc2cccc(Oc3nc(OC)cc(OC)n3)c2C(=O)O)n1` [bispyribac-sodium], the Herbicidal activity is given as 98% in the test on BRSNW (solo application 15 g ai/ha); 0% with ALOMY (solo application 30 g ai/ha); 0% in the test on ALOMY (solo application 60 g ai/ha); 5% with LOLRI (solo application 60 g ai/ha); 85% with MATIN (solo application 60 g ai/ha); 90% in the test on MATIN (solo application 120 g ai/ha). Also, the Herbicidal activity with GALAP (solo application 15 g ai/ha) stood at 40%; in the test with GALAP (solo application 30 g ai/ha), 65%; in the test with GALAP (solo application 120 g ai/ha), 95%; in the test on PAPRH (solo application 15 g ai/ha) it was 0%; in the test with PAPRH (solo application 60 g ai/ha), 50%; in the test on PAPRH (solo application 120 g ai/ha), 50%.
On to `CCCCOC(=O)[C@@H](C)Oc1ccc(Oc2ccc(C#N)cc2F)cc1` [cyhalofop-butyl], for which the Herbicidal activity with BRSNW (solo application 100 g ai/ha) is 0%; in the test on ALOMY (solo application 25 g ai/ha), 5%; in the test on ALOMY (solo application 50 g ai/ha), 20%; in the test on LOLRI (solo application 12.5 g ai/ha) it was 25%; with BROST (solo application 100 g ai/ha), 0%; with MATIN (solo application 100 g ai/ha), 0%. In addition, the Herbicidal activity with GALAP (solo application 50 g ai/ha), in the test on GALAP (solo application 100 g ai/ha), in the test with PAPRH (solo application 12.5 g ai/ha) and in the test on PAPRH (solo application 50 g ai/ha) was 0% in each case.
As for `COC(=O)c1ccccc1S(=O)(=O)NC(=O)Nc1nc(C)nc(OC)n1` [metsulfuron-methyl], the Herbicidal activity in the test on BRSNW (solo application 1 g ai/ha) came out at 90%; with BRSNW (solo application 2 g ai/ha), 95%; in the test with BRSNW (solo application 8 g ai/ha) it was 98%; in the test with ALOMY (solo application 1 g ai/ha) it was 0%; with LOLRI (solo application 1 g ai/ha) it was 10%; in the test with MATIN (solo application 1 g ai/ha), 90%. Besides, the Herbicidal activity in the test on MATIN (solo application 2 g ai/ha) worked out at 90%; in the test on MATIN (solo application 4 g ai/ha), 85%; with MATIN (solo application 8 g ai/ha), 90%; with GALAP (solo application 4 g ai/ha), 30%; in the test on GALAP (solo application 8 g ai/ha) it was 25%; in the test on PAPRH (solo application 1 g ai/ha), 0%. The Herbicidal activity in the test with PAPRH (solo application 4 g ai/ha) was 50%; in the test on PAPRH (solo application 8 g ai/ha), 98%.
Take `CCOC(=O)[C@@H](C)Oc1ccc(Oc2cnc3cc(Cl)ccc3n2)cc1` [quizalofop-P-ethyl]: the Herbicidal activity is 0% in the test on BRSNW (solo application 120 g ai/ha); 60% in the test on ALOMY (solo application 15 g ai/ha); 65% in the test with ALOMY (solo application 30 g ai/ha); 85% with ALOMY (solo application 120 g ai/ha); 80% in the test with LOLRI (solo application 15 g ai/ha); 95% with LOLRI (solo application 30 g ai/ha). Moreover, the Herbicidal activity turned out to be 15% in the test on BROST (solo application 15 g ai/ha); 50% with BROST (solo application 30 g ai/ha); 80% in the test with BROST (solo application 60 g ai/ha); 95% in the test on BROST (solo application 120 g ai/ha); 0% with MATIN (solo application 15 g ai/ha); 0% in the test with MATIN (solo application 30 g ai/ha). The Herbicidal activity in the test with MATIN (solo application 60 g ai/ha) came out at 10%; in the test with GALAP (solo application 15 g ai/ha), 0%; in the test on GALAP (solo application 30 g ai/ha) it was 0%; with PAPRH (solo application 15 g ai/ha) it was 25%.
